Format in all cases: in vivo
The test system of assay [1] is Musca domestica. The experiment in a line: Pesticidal test against Musca domestica, filter paper with sucrose bait (Test Example 6). The procedure: Ten female adults of Musca domestics (house fly) were set free in the polyethylene cup, which was then kept covered. After 24 hours, their survival was examined to determine the mortality.
Assay [2] relates to Leptinotarsa decemlineata. The assay is described as follows: Pesticidal test against Leptinotarsa decemlineata, eggplant leaf dip (Test Example 5). The settings on record: foliar, 120 h, eggplant leaf immersed 1 minute, second-instar larvae, 5th day after release, read-out: rate of dead or moribund pests. The procedure: A leaf of eggplant was immersed in the test liquid, which had been prepared as described above, for 1 minute. After the test liquid treated the leaf of eggplant was dried with a paper towel, the leaf of eggplant was placed in a polyethylene cup of 3 cm in diameter. One second-instar larvae of Leptinotarsa decemlineata (Colorado potato beetle) were set free in the polyethylene cup, which was then kept covered and left in a greenhouse at 25° C. This test was done ten times for one compound. On the 5th day after the release of Leptinotarsa decemlineata, the number of dead pests and moribund pests was examined.

In assay [3] the test system is Eysarcoris lewisi. The experiment in a line: Pesticidal test against Eysarcoris lewisi, treated peanut seeds (Test Example 4). The settings on record: 168 h, peanut seeds immersed 1 minute, adults, 7th day after release, read-out: rate of dead or moribund pests. As for the experimental part:
Then, 3 to 5 seeds of peanut were immersed in the test liquid, which had been prepared as described above, for 1 minute. After the test liquid treated the seeds of peanut was dried with a paper towel, a filter paper moistened with 1 ml of water was placed on a bottom of polyethylene cup and then the seeds of peanut was placed on it. Six to eight adults of Eysarcoris lewisi were set free in the polyethylene cup, which was then kept covered and left in a greenhouse at 25° C. On the 7th day after the release of Eysarcoris lewisi, the number of dead pests and moribund pests was examined.

For assay [4], the system named is Ctenocephalides felis. The assay is described as follows: Pesticidal test against Ctenocephalides felis, treated filter paper (Test Example 9). The settings on record: 200 mg/m^2 on filter paper (acetone solution), twenty adults, after 24 hours. As for the experimental part: Each of the compound 8, 15, 19, 21 and 34 was dissolved in acetone to give a 0.2 ml solution of 0.114% w/w, which was uniformly treated on a filter paper having 3.8cm in diameter, and air-dried. The amount of active ingredient was 200 mg/m^2. The filter paper was filled in a lid of a 200 ml glass bottle. Twenty adult Ctenocephalides felis (cat flea) were released in the glass bottle, which was followed by covering with the lid. The glass bottle was upset for making the fleas contact with the filter paper. After 24 hours, the mortality was examined.

Setting [5] is: 500 ppm, 0.7 ml on filter paper, ten female adults, after 24 hours, read-out: mortality.

Each structure is given as a SMILES string. Like-named read-outs stand apart in the source and are kept apart here.

In general, mortality refers to the share of the test organisms that died.

`N#CC(C#N)(Cc1ccc(OC(F)(F)F)cc1)CC(F)(F)C(F)(F)F` [Compound 5, 2-(2,2,3,3,3-pentafluoropropyl)-2-(4-(trifluoromethoxy)benzyl)malononitrile]: the mortality at 500 ppm in assay [1] (setting [5]) stood at 100%. Also, in assay [2], the pest or weed control at 1.6 ppm is greater than 80%.
As to `N#CC(C#N)(CCC(F)(F)C(F)(F)F)Cc1ccc(C(F)(F)F)cc1` [Compound 8, 2-(3,3,4,4,4-pentafluorobutyl)-2-(4-(trifluoromethyl)benzyl)malononitrile], the mortality at 500 ppm in assay [1] (setting [5]) was determined as 100%. Besides, in assay [3], the pest or weed control at 100 ppm was found to be 100%. Further, the pest or weed control at 1.6 ppm in assay [2] is greater than 80%. This molecule displayed a mortality at 200 mg/m2 in assay [4] of 100%.
On to `N#CC(C#N)(CCC(F)(F)F)Cc1ccc(Br)cc1` [Compound 9, 2-(4-bromobenzyl)-2-(3,3,3-trifluoropropyl)malononitrile], for which the mortality at 500 ppm in assay [1] (setting [5]) is 100%. Moreover, the pest or weed control at 100 ppm in assay [3] came out at 100%.
On to `N#CC(C#N)(CCC(F)(F)C(F)(F)F)Cc1ccc(OC(F)(F)F)cc1` [Compound 10, 2-(3,3,4,4,4-pentafluorobutyl)-2-(4-(trifluoromethoxy)benzyl)malononitrile], for which, in assay [1] (setting [5]), the mortality at 500 ppm turned out to be 100%. Moreover, the pest or weed control at 100 ppm in assay [3] was 100%. For the same molecule, in assay [2], the pest or weed control at 1.6 ppm was greater than 80%.
Turning to `N#CC(C#N)(CCC(F)F)Cc1ccc(C(F)(F)F)cc1` [Compound 11, 2-(3,3-difluoropropyl)-2-(4-(trifluoromethyl)benzyl)malononitrile], the mortality at 500 ppm in assay [1] (setting [5]) amounted to 100%. In assay [3], the pest or weed control at 100 ppm stood at 100%.
Take `N#CC(C#N)(CCCF)Cc1ccc(C(F)(F)F)cc1` [Compound 14, 2-(3-fluoropropyl)-2-(4-(trifluoromethyl)benzyl)malononitrile]: the mortality at 500 ppm in assay [1] (setting [5]) worked out at 100%. Moreover, in assay [3], the pest or weed control at 100 ppm was 100%.
For the molecule `N#CC(C#N)(CCC(F)(F)F)Cc1ccc(Cl)cc1` [Compound 15, 2-(4-chlorobenzyl)-2-(3,3,3-trifluoropropyl)malononitrile], the mortality at 500 ppm in assay [1] (setting [5]) stood at 100%. Also, the pest or weed control at 1.6 ppm in assay [2] is greater than 80%. The molecule further registered a mortality at 200 mg/m2 in assay [4] of 100%.
As to `N#CC(C#N)(CCC(F)(F)F)Cc1ccc(F)c(F)c1` [Compound 19, 2-(3,4-difluorobenzyl)-2-(3,3,3-trifluoropropyl)malononitrile], the mortality at 500 ppm in assay [1] (setting [5]) came out at 100%. The mortality at 200 mg/m2 in assay [4] was 100%.
Regarding `N#CC(C#N)(CCC(F)(F)F)Cc1ccc(Cl)c(Cl)c1` [Compound 21, 2-(3,4-dichlorobenzyl)-2-(3,3,3-trifluoropropyl)malononitrile], in assay [1] (setting [5]), the mortality at 500 ppm was determined as 100%. Moreover, in assay [3], the pest or weed control at 100 ppm was found to be 100%. The pest or weed control at 1.6 ppm in assay [2] was greater than 80%. Further, in assay [4], the mortality at 200 mg/m2 is 100%.
As for `N#Cc1ccc(CC(C#N)(C#N)CCC(F)(F)F)cc1` [Compound 22, 2-(4-cyanobenzyl)-2-(3,3,3-trifluoropropyl)malononitrile], in assay [1] (setting [5]), the mortality at 500 ppm was found to be 100%. The pest or weed control at 100 ppm in assay [3] is 100%.
Consider `N#CC(C#N)(CCC(F)(F)C(F)(F)F)Cc1ccc(Cl)cc1` [Compound 23, 2-(4-chlorobenzyl)-2-(3,3,4,4,4-pentafluorobutyl)malononitrile], for which the mortality at 500 ppm in assay [1] (setting [5]) was found to be 100%. In addition, the pest or weed control at 100 ppm in assay [3] was 100%.
Take `CSc1ccc(CC(C#N)(C#N)CCC(F)(F)F)cc1` [Compound 34, 2-(4-(methylthio)benzyl)-2-(3,3,3-trifluoropropyl)malononitrile]: the mortality at 500 ppm in assay [1] (setting [5]) worked out at 100%. In assay [4], this molecule gave a mortality at 200 mg/m2 of 100%.
For the molecule `N#CC(C#N)(CCC(F)(F)F)Cc1ccc(C(F)(F)F)c(Cl)c1` [Compound 39, 2-(3-chloro-4-(trifluoromethyl)benzyl)-2-(3,3,3-trifluoropropyl)malononitrile], the mortality at 500 ppm in assay [1] (setting [5]) amounted to 100%. In addition, the pest or weed control at 100 ppm in assay [3] worked out at 100%.
Consider `N#CC(C#N)(CCC(F)(F)F)Cc1ccc(OC(F)(F)F)cc1` [Compound 50, 2-(3,3,3-trifluoropropyl)-2-(4-(trifluoromethoxy)benzyl)malononitrile], for which, in assay [1] (setting [5]), the mortality at 500 ppm stood at 100%. The pest or weed control at 100 ppm in assay [3] turned out to be 100%. Moreover, the pest or weed control at 1.6 ppm in assay [2] was greater than 80%.
For `N#CC(C#N)(CCC(F)(F)F)Cc1cc(F)cc(F)c1` [Compound 71, 2-(3,5-difluorobenzyl)-2-(3,3,3-trifluoropropyl)malononitrile], the mortality at 500 ppm in assay [1] (setting [5]) amounted to 100%.
Regarding `N#CC(C#N)(Cc1ccc(C(F)(F)F)cc1)CC(F)(F)F` [Compound 72, 2-(2,2,2-trifluoroethyl)-2-(4-(trifluoromethyl)benzyl)malononitrile], the mortality at 500 ppm in assay [1] (setting [5]) came out at 100%.
For the molecule `N#CC(C#N)(CCC(F)=C(F)F)Cc1ccc(C(F)(F)F)cc1` [Compound 73, 2-(3,4,4-trifluoro-3-butenyl)-2-(4-(trifluoromethyl)benzyl)malononitrile], the mortality at 500 ppm in assay [1] (setting [5]) is 100%.
Take `N#CC(C#N)(CCC(F)(F)F)Cc1ccc(C(F)(F)F)cc1` [Compound 74, 2-(3,3,3-trifluoropropyl)-2-(4-(trifluoromethyl)benzyl)malononitrile]: the mortality at 500 ppm in assay [1] (setting [5]) was 100%. In assay [3], the pest or weed control at 100 ppm was 100%. Also, in assay [2], the pest or weed control at 1.6 ppm is greater than 80%.
Consider `N#CC(C#N)(Cc1ccc(C(F)(F)F)cc1)CC(F)(F)C(F)(F)F` [Compound 76, 2-(2,2,3,3,3-pentafluoropropyl)-2-(4-(trifluoromethyl)benzyl)malononitrile], for which the mortality at 500 ppm in assay [1] (setting [5]) was determined as 100%. Also, in assay [3], the pest or weed control at 100 ppm amounted to 100%. The pest or weed control at 1.6 ppm in assay [2] was greater than 80%.
`N#CC(C#N)(Cc1ccc(C(F)(F)F)cc1)CC(F)(F)C(F)(F)C(F)(F)F` [Compound 77, 2-(2,2,3,3,4,4,4-heptafluorobutyl)-2-(4-(trifluoromethyl)benzyl)malononitrile] gave a mortality at 500 ppm in assay [1] (24 h) of 100%.
For the molecule `N#CC(C#N)(CCCC(F)(F)F)Cc1ccc(C(F)(F)F)cc1` [Compound 78, 2-(4,4,4-trifluorobutyl)-2-(4-(trifluoromethyl)benzyl)malononitrile], the mortality at 500 ppm in assay [1] (setting [5]) amounted to 100%. Besides, the pest or weed control at 1.6 ppm in assay [2] is greater than 80%.
For `N#CC(C#N)(CCC(F)(F)F)Cc1cccc(F)c1` [Compound 79, 2-(3-fluorobenzyl)-2-(3,3,3-trifluoropropyl)malononitrile], the mortality at 500 ppm in assay [1] (setting [5]) turned out to be 100%.
As to `N#CC(C#N)(CCC(F)(F)F)Cc1cccc(OCc2ccccc2)c1` [Compound 88, 2-(3-(benzyloxy)benzyl)-2-(3,3,3-trifluoropropyl)malononitrile], the mortality at 500 ppm in assay [1] (setting [5]) amounted to 100%.
In the case of `COc1ccc(CC(C#N)(C#N)CCC(F)(F)F)cc1` [Compound 89, 2-(4-methoxybenzyl)-2-(3,3,3-trifluoropropyl)malononitrile], the mortality at 500 ppm in assay [1] (setting [5]) turned out to be 100%.

The values above are taken from patent US7402691B2, “Malononitrile compounds and their use as pesticides” (Sumitomo Chemical Company, Limited, priority 2001, dated 2008).
